The values that follow come from ChEMBL document CHEMBL2331454, “Synthesis and structure-activity relationship studies of novel dual inhibitors of soluble epoxide hydrolase and 5-lipoxygenase” (J Med Chem, 2013).

pIC50: −log10 of the molar value.

The target of the experiment is Soluble epoxide hydrolase (Homo sapiens). Description: Inhibition of human recombinant soluble epoxide hydrolase expressed in Escherichia coli after 30 mins by PHOME-based fluorescence assay.
Take `COc1ccc(-c2nc3ccc(C)cn3c2NC2CCCCC2)cc1OCCCNC(=O)Nc1ccc(OC(F)(F)F)cc1`: the pIC50 was 5.96.

As for `Cc1ccc2nc(-c3ccc(OCCCNC(=O)Nc4ccc(C(F)(F)F)cc4)c(Cl)c3)c(NC3CCCCC3)n2c1`, the pIC50 is 6.72. The value for `COc1cc(-c2nc3ccc(C)cn3c2NC2CCCCC2)ccc1OCCCNC(=O)NC1CCCCC1` was 6.72; that for `COc1cc(-c2nc3ccc(C)cn3c2NC2CCCCC2)ccc1OCCCNC(=O)Nc1ccc(C(F)(F)F)cc1` was 6.36. For `COc1cc(-c2nc3ccc(C)cn3c2NC2CCCCC2)ccc1OCCCNC(=O)Nc1ccc(OC(F)(F)F)cc1`, the pIC50 is 6.94. Take `COc1cc(-c2nc3ccc(Cl)cn3c2NC2CCCCC2)ccc1OCCCNC(=O)Nc1ccc(C(F)(F)F)cc1`: the pIC50 was 6.47. The value for `COc1cc(-c2nc3ccc(F)cn3c2NC2CCCCC2)ccc1OCCCNC(=O)Nc1ccc(OC(F)(F)F)cc1` was 6.16; that for `COc1cc(-c2nc3ccc(F)cn3c2NC2CCCCC2)ccc1OCCCNC(=O)Nc1ccc(C(F)(F)F)cc1` was 6.19. The result for `COc1cc(-c2nc3ccc(C)cn3c2NC2CCCC2)ccc1OCCCNC(=O)Nc1ccc(OC(F)(F)F)cc1` reads 6.33; that for `COc1cc(-c2nc3ccc(C)cn3c2NC2CCCC2)ccc1OCCCNC(=O)Nc1ccc(C(F)(F)F)cc1`, 6.21.

Take `COc1cc(-c2nc3ccc(C)cn3c2NC(C)C)ccc1OCCCNC(=O)Nc1ccc(C(F)(F)F)cc1`: the pIC50 was 6.21.

As to `COc1cc(-c2nc3ccc(F)cn3c2NC2CCCC2)ccc1OCCCNC(=O)Nc1ccc(C(F)(F)F)cc1`, the pIC50 was 6.32. The value for `COc1cc(-c2nc3ccc(Cl)cn3c2NC(C)C)ccc1OCCCNC(=O)Nc1ccc(C(F)(F)F)cc1` was 6.36; that for `O=C(Nc1ccc(Cl)cc1)N1CCC(CO)CC1` was 5.65.

The term pIC50 denotes the IC50 on a negative log10 scale, so that one unit is a factor of ten.
